Common to all, as to assay type: cell-based, HIV-1
In one test the test system is HIV-IIIb (wildtype). In words: Antiviral assay in MT4 cells, HIV-IIIb wildtype. Particulars: Human immunodeficiency virus 1, IIIB, MT4, 120 h, read-out: WT EC50. The procedure: (§1) Antiviral Assay in MT4 Cells
(§2) For the antiviral assay, 0.4 μL of 189X test concentration of 3-fold serially diluted compound in DMSO was added to 40 μL of cell growth medium (RPMI 1640, 10% FBS, 1% Penicillin-Streptomycin, 1% L-Glutamine, 1% HEPES) in each well of 384-well plate (10 concentrations) in quadruplicate.
(§3) 1 mL Aliquots of MT4 cells were pre-infected for 3 hours at 37° C. with 25 μL of cell growth medium (mock-infected) or a fresh 1:250 dilution of an HIV-IIIb (wildtype, IN T174I BT, or IN T174I DE) concentrated ABI stock (0.004 m.o.i.). IN T174I BT virus was derived from viral breakthrough (BT) assay as described in Mulato, A.; Hansen, D.; Thielen, A.; Porter, D.; Stepan, G.; White, K.; Daeumer, M.; Cihlar, T.; Yant, S. R. AIDS Research and Human Retrovirues, July 2016, ahead of print. doi:10.1089/aid.2016.0071. IN T174I DE virus was derived from serial passaging with dose escalation (DE) of test compound. Infected and uninfected cells were diluted in cell growth media and 35 μL (2000 cells) was added to each well of the assay plates.
(§4) Assay plates were then maintained in a humidified, 5% CO2 incubator at 37° C. After 5 days of incubation, 25 μl of 2× concentrated CellTiter-Glo™ Reagent (catalog # G7573, Promega Biosciences, Inc., Madison, Wis.) was added to each well of the assay plate. Cell lysis was carried out by incubating at room temperature for 10 minutes and then chemiluminescence was read using an Envision plate reader (PerkinElmer). EC50 values were calculated as the compound concentration that caused a 50% […] in luminescence signal, a measure of HIV-1 replication.

Another test concerns HIV-IIIb IN T174I BT. Briefly: Antiviral assay in MT4 cells, HIV-IIIb IN T174I BT virus (from viral breakthrough). Particulars: Human immunodeficiency virus 1, IIIB, MT4, 120 h, read-out: T174I BT EC50, MT4 cells, HIV-IIIb IN T174I BT (viral breakthrough), 5 days, CellTiter-Glo. The method, then: as §1, §2, §3, §4
In another test the test system is HIV-IIIb IN T174I DE. Briefly: Antiviral assay in MT4 cells, HIV-IIIb IN T174I DE virus (from dose escalation passaging). Particulars: Human immunodeficiency virus 1, IIIB, MT4, 120 h, read-out: T174I DE EC50, MT4 cells, HIV-IIIb IN T174I DE (dose escalation), 5 days, CellTiter-Glo. The procedure: as §1, §2, §3, §4

The text below walks through data of patent publication US10800772B2 (Gilead Sciences, Inc., priority 2016, dated 2020).

Molecules are shown by their SMILES.

On to `Cc1cc2nc(-c3cnc4c(c3)c(C3CCN(C5CN(C(=O)OC(C)(C)C)C5)CC3)nn4C)sc2c(-c2ccc(Cl)cc2)c1[C@H](OC(C)(C)C)C(=O)O` [Compound 116, (S)-2-(tert-butoxy)-2-(2-(3-(1-(1-(tert-butoxycarbonyl)azetidin-3-yl)piperidin-4-yl)-1-methyl-1H-pyrazolo[3,4-b]pyridin-5-yl)-7-(4-chlorophenyl)-5-methylbenzo[d]thiazol-6-yl)acetic acid], for which the EC50 in the test with HIV-IIIb (wildtype) was determined as 40 nM; in the test with HIV-IIIb IN T174I BT it was 3810 nM; with HIV-IIIb IN T174I DE it was 5190 nM.
In the same order, the values of `CC(=O)N1CC(N2CCC(c3nn(C)c4ccc(-c5nc6cc(C)c([C@H](OC(C)(C)C)C(=O)O)c(-c7ccc(Cl)cc7)c6s5)cc34)CC2)C1` [Compound 30, (S)-2-(2-(3-(1-(1-acetylazetidin-3-yl)piperidin-4-yl)-1-methyl-1H-indazol-5-yl)-7-(4-chlorophenyl)-5-methylbenzo[d]thiazol-6-yl)-2-(tert-butoxy)acetic acid] are 12 nM, 111 nM and 187 nM.
In the same order, the values of `COC(=O)N1CC[C@@H](N2CCC(c3nn(C)c4ccc(-c5nc6cc(C)c([C@H](OC(C)(C)C)C(=O)O)c(-c7ccc(Cl)cc7)c6s5)cc34)CC2)C1` [Compound 165, (S)-2-(tert-butoxy)-2-(7-(4-chloro-phenyl)-2-(3-(1-((R)-1-(methoxy-carbonyl)pyrrolidin-3-yl)piperidin-4-yl)-1-methyl-1H-indazol-5-yl)-5-methylbenzo[d]thiazol-6-yl) acetic acid] are 5 nM, 118 nM and 182 nM.
On to `Cc1cc2nc(-c3ccc4c(c3)c(N3CCN(C)C(=O)C3)nn4C)sc2c(-c2ccc(Cl)cc2)c1[C@H](OC(C)(C)C)C(=O)O` [Compound 85, (S)-2-(tert-butoxy)-2-(7-(4-chlorophenyl)-5-methyl-2-(1-methyl-3-(4-methyl-3-oxopiperazin-1-yl)-1H-indazol-5-yl)benzo[d]thiazol-6-yl)acetic acid], for which the figures for the EC50 with HIV-IIIb (wildtype), with HIV-IIIb IN T174I BT and in the test on HIV-IIIb IN T174I DE were 57 nM, 1350 nM and 1170 nM, respectively.
For `COC(=O)N1CC(N2CCC(c3nn(C(F)F)c4ccc(-c5nc6cc(C)c([C@H](OC(C)(C)C)C(=O)O)c(-c7ccc(Cl)cc7)c6s5)nc34)CC2)C1` [Compound 14, (S)-2-(tert-butoxy)-2-(7-(4-chlorophenyl)-2-(1-(difluoromethyl)-3-(1-(1-(methoxycarbonyl)azetidin-3-yl)piperidin-4-yl)-1H-pyrazolo[4,3-b]pyridin-5-yl)-5-methylbenzo[d]thiazol-6-yl)acetic Acid] the same measures were 5 nM, 109 nM and 304 nM.
In the same order, the values of `Cc1cc2nc(-c3ccc4c(n3)c(C3CCN([C@@H]5CCN(C)C5)CC3)nn4C)sc2c(-c2ccc(Cl)cc2)c1[C@H](OC(C)(C)C)C(=O)O` [Compound 171, (S)-2-(tert-butoxy)-2-(7-(4-chloro-phenyl)-5-methyl-2-(1-methyl-3-(1-((R)-1-methyl-pyrrolidin-3-yl)piperidin-4-yl)-1H-pyrazolo[4,3-b]pyridin-5-yl)benzo[d]thiazol-6-yl)acetic acid] are 5 nM, 98 nM and 239 nM.
In the same order, the values of `Cc1cc2nc(-c3ccc4c(c3)c(N3CCN5C(=O)COC[C@H]5C3)nn4C)sc2c(-c2ccc(Cl)cc2)c1[C@H](OC(C)(C)C)C(=O)O` [Compound 205, (S)-2-(tert-butoxy)-2-(7-(4-chloro-phenyl)-5-methyl-2-(1-methyl-3-((R)-4-oxohexa-hydropyrazino [2,1-c][1,4]oxazin-8(1H)-yl)-1H-indazol-5-yl)benzo[d]thiazol-6-yl)acetic acid] are 7 nM, 457 nM and 736 nM.
